# Data taken from patent US20090270442A1, “POLYMORPHS OF HYDROCHLORIDE SALT OF 5-(3-(ETHYLSULFONYL)PHENYL)-3,8-DIMETHYL-N-(1-METHYLPIPERIDIN-4-YL)-9H-PYRIDO[2,3-B]INDOLE-7-CARBOXAMIDE AND METHODS OF USE THEREFOR” (TAKEDA PHARMACEUTICAL COMPANY LIMITED, priority 2008, published 2009).
# Read-outs that look alike come from different tables or passages of the source.
# Columns and labels:
# Assay type in all cases: physicochemical
# [1] = Solvent screen: solubility of Compound 1 in various solvents (Table 16)
# Description: Compound 1 as prepared by the method described in Example I may be used as the starting material for preparation of other polymorphic forms. The methods for testing the solubility of Compound 1 are described in Example 3, and the solubilities of Compound 1 in various solvents are summarized in Table 16. […] A solubility study of Compound 1 in various solvents was executed to select appropriate solvents for the further crystallizations. The material was placed in vials and the solvent was added in 250 μL portions. Solvents were picked based on differences in polarity and functionality and on their classification according to the International Conference on Harmonization (ICH), with preferences given to class II and class III solvents. After each addition of solvent, the vials were visually inspected for residual solids, and further heating to 55° C. to ensure dissolution.
# [2] = 1 week slurry experiments in water, IPA, EtOAc, MeCN, EtOH and dioxane, form by XRPD (Table 34); conditions: for Form (1 wk): RT, resulting form by XRPD
# Description: Each vial was charged with approximately 25-30 mg of API and 1 mL of the corresponding solvent, followed by stirring at room temperature for one week. […] The obtained solids were isolated by filtration, dried under vacuum at room temperature and analyzed by XRPD.
# [3] = Solubility study of Form A in DI water and 20 mM phosphate buffer (pH 3.2) (Table 37); conditions: for pH (final, 1 week): supernatant after 1 week slurry; for solubility at 1 day: read-out: Solubility mg/mL (1 day); for solubility at 1 week: read-out: Solubility mg/mL (1 week)
# Description: The solubility measurement of Compound 1 Form A was performed in DI water (Milli-Q) and in 20 mM phosphate buffer (pH 3.2), see Table 37. Each vial was charged with 50-55 mg of Compound 1 and 1 mL of the corresponding solvent.
# Both slurries were stirred at room temperature for approximately 19 hours. An aliquot (0.2 mL) was taken from each sample for the solubility determination and XRPD test. […] Both slurries were allowed to stir for an additional 6 days at room temperature. The pH of the supernatant liquid and solubility were determined following the 1 week slurry.
# [4] = Moisture-sorption analysis (adsorption/desorption, then drying 1 h at 80° C. and XRPD) (Table 40); conditions: for XRPD pattern after drying: dried for one hour at 80° C.
# Description: Moisture-sorption experiments were carried out on three forms by first drying the sample at 0% RH and 25° C. until an equilibrium weight was reached or for a maximum of four hours. The sample was then subjected to an isothermal (25° C.) adsorption scan from 10 to 90% RH in steps of 10%. The sample was allowed to equilibrate to an asymptotic weight at each point for a maximum of four hours. Following adsorption, a desorption scan from […] to 0% RH (at 25° C.) was run in steps of −10%, again allowing a maximum of four hours for equilibration to an asymptotic weight. The sample was then dried for one hour at 80° C. and the resulting solid analyzed by XRPD.
# [5] = Karl Fischer analysis (KF), water content; conditions: for water content by KF: theoretical for a monohydrate 3.2%
# Description: Water content was determined by adding solid sample to the instrument with HYDRANAL-Coulomat AD. Micrograms of water were determined by coulometric titration.
# [6] = Humidity chamber study at 0% and 95% RH, one week, XRPD and KF (Table 38); conditions: 0 and 95% RH for one week, ambient temperature
# Description: The 0% RH chamber was prepared with drierite and the 95% RH chamber was made with a saturated solution of Na2HPO4.12H2O in DI water. The chambers were equilibrated for >1 week prior to introducing samples. Samples were placed in Teflon-lined caps for scintillation vials and allowed to equilibrate for one week then analyzed by XRPD and KF to determine form and water content.
# FIG. 60 summarizes the conversion of the forms of Compound 1 observed from slurry and humidity chamber studies.
# [7] = Drying study of Form A under vacuum at 40-85° C., XRPD and OVI (Table 39)
# Description: Approximately 100 mg of sample was weighed into an individual 20-mL headspace vial and 5 mL of DMSO added. The vial was then sealed and gentle shaking/vortexing was used to ensure sample was entirely dissolved. Blank samples were prepared by transferring 5.0 mL of DMSO into a 20-mL headspace vial and then sealed. Standards were prepared using stock solutions in DMSO. Compound 1 (4.08 g, Form A) was dried under vacuum at 40° C. overnight. A small sample (˜200 mg) was taken for XRPD and OVI tests. The rest of the material was further dried under vacuum at 55° C. overnight. A second sample (˜200 mg) was taken for XRPD and OVI tests. The oven temperature was increased to 70° C. and the material was further dried under vacuum at 70° C. overnight. A third sample (˜200 mg) was taken for XRPD and OVI tests. The oven temperature was then increased to 85° C. and the material was further dried under vacuum over weekend. Analysis by XRPD and OVI was completed as shown in Table 39 along with experimental details.
# [8] = 20 mM phosphate buffer slurry, room temperature
# [9] = DI water slurry, room temperature
structure (smiles),measurement,setting,value
"CCS(=O)(=O)c1cccc(-c2cc(C(=O)NC3CCN(C)CC3)c(C)c3[nH]c4ncc(C)cc4c23)c1.Cl [Compound 1, 5-(3-(ethylsulfonyl)phenyl)-3,8-dimethyl-N-(1-methylpiperidin-4-yl)-9H-pyrido[2,3-b]indole-7-carboxamide hydrochloride]",solubility,"[1]; 55 °C, thermodynamic from solid, solvent water, Temp 55, Soluble No, read-out: Conc.",≤ 600 µg/mL
same,solubility,"[1]; in acetone, MeCN, MTBe, EtOAc, IPAc, IPA, THF, 2-Me-THF, DCM, MEK, cyclohexane, heptane and water",Poor solubility
same,solubility,"[1]; in dioxane, MeOH, DMF, DMA, NMP, AcOH and EtOH",Good solubility
same,Soluble,"[1]; solvent 2-Me-THF, 0.4 mg/mL, Temp 55",No
same,Conc.,"[1]; solvent 2-Me-THF, Temp 55, Soluble No",400 µg/mL
same,Soluble,"[1]; solvent AcOH, >9.2 mg/mL, Temp RT",Yes
same,Conc.,"[1]; solvent AcOH, Temp RT, Soluble Yes",>9200 µg/mL
same,Soluble,"[1]; solvent Acetone, 0.3 mg/mL, Temp 55",No
same,Conc.,"[1]; solvent Acetone, Temp 55, Soluble No",300 µg/mL
same,Soluble,"[1]; solvent Chloroform, >8.4 mg/mL, Temp RT",Yes
same,Conc.,"[1]; solvent Chloroform, Temp RT, Soluble Yes",>8400 µg/mL
same,Soluble,"[1]; solvent DCM, 0.8 mg/mL, Temp RT",No
same,Conc.,"[1]; solvent DCM, Temp RT, Soluble No",800 µg/mL
same,Soluble,"[1]; solvent DMA, >9.2 mg/mL, Temp RT",Yes
same,Conc.,"[1]; solvent DMA, Temp RT, Soluble Yes",>9200 µg/mL
same,Soluble,"[1]; solvent DMF, >10.4 mg/mL, Temp RT",Yes
same,Conc.,"[1]; solvent DMF, Temp RT, Soluble Yes",>10400 µg/mL
same,Soluble,"[1]; solvent Dioxane, 0.7 mg/mL, Temp 55",Yes
same,Conc.,"[1]; solvent Dioxane, Temp 55, Soluble Yes",700 µg/mL
same,Soluble,"[1]; solvent EtOAc, 0.4 mg/mL, Temp 55",No
same,Conc.,"[1]; solvent EtOAc, Temp 55, Soluble No",400 µg/mL
same,Soluble,"[1]; solvent EtOH, 1.2 mg/mL, Temp 55",Yes
same,Conc.,"[1]; solvent EtOH, Temp 55, Soluble Yes",1200 µg/mL
same,Soluble,"[1]; solvent Heptane, 0.4 mg/mL, Temp 55",No
same,Conc.,"[1]; solvent Heptane, Temp 55, Soluble No",400 µg/mL
same,Soluble,"[1]; solvent IPA, 0.5 mg/mL, Temp 55",No
same,Conc.,"[1]; solvent IPA, Temp 55, Soluble No",500 µg/mL
same,Soluble,"[1]; solvent IPAC, 0.5 mg/mL, Temp 55",No
same,Conc.,"[1]; solvent IPAC, Temp 55, Soluble No",500 µg/mL
same,Soluble,"[1]; solvent MEK, 0.6 mg/mL, Temp 55",No
same,Conc.,"[1]; solvent MEK, Temp 55, Soluble No",600 µg/mL
same,Soluble,"[1]; solvent MTBE, 0.3 mg/mL, Temp 55",No
same,Conc.,"[1]; solvent MTBE, Temp 55, Soluble No",300 µg/mL
same,Soluble,"[1]; solvent MeCN, 0.5 mg/mL, Temp 55",No
same,Conc.,"[1]; solvent MeCN, Temp 55, Soluble No",500 µg/mL
same,Soluble,"[1]; solvent MeOH, >10.0 mg/mL, Temp RT",Yes
same,Conc.,"[1]; solvent MeOH, Temp RT, Soluble Yes",>10000 µg/mL
same,Soluble,"[1]; solvent NMP, >10.4 mg/mL, Temp RT",Yes
same,Conc.,"[1]; solvent NMP, Temp RT, Soluble Yes",>10400 µg/mL
same,Soluble,"[1]; solvent THF, 0.4 mg/mL, Temp 55",No
same,Conc.,"[1]; solvent THF, Temp 55, Soluble No",400 µg/mL
same,Soluble,"[1]; solvent Toluene, 0.4 mg/mL, Temp 55",No
same,Conc.,"[1]; solvent Toluene, Temp 55, Soluble No",400 µg/mL
same,Soluble,"[1]; solvent c-Hexane, 0.5 mg/mL, Temp 55",No
same,Conc.,"[1]; solvent c-Hexane, Temp 55, Soluble No",500 µg/mL
same,Soluble,"[1]; solvent water, 0.6 mg/mL, Temp 55",No
CCS(=O)(=O)c1cccc(-c2cc(C(=O)NC3CCN(C)CC3)c(C)c3[nH]c4ncc(C)cc4c23)c1 [Form N],Form (1 wk),[2]; 1 week slurry in Dioxane (1.0 mL),C + P
same,Form (1 wk),[2]; 1 week slurry in EtOAc (1.0 mL),C + P
same,Form (1 wk),[2]; 1 week slurry in IPA (1.0 mL),C + P
same,form isolated after slurry in water,"[2]; room temperature, one week",Form A
CCS(=O)(=O)c1cccc(-c2cc(C(=O)NC3CCN(C)CC3)c(C)c3[nH]c4ncc(C)cc4c23)c1 [Form A],XRPD (1 week),[3]; [8],Form A
same,XRPD (1 day),[3]; [8],Form A
same,"pH (final, 1 week)",[3]; 20 mM phosphate buffer,3.3
same,solubility,"[3]; DI water and 20 mM phosphate buffer (pH 3.2), thermodynamic from solid, DI water and phosphate buffer slurries, after equilibration overnight and 1 week, room temperature",3000 to 4000 µg/mL
same,XRPD (1 week),[3]; [9],Form A
same,XRPD (1 day),[3]; [9],Form A
same,"pH (final, 1 week)",[3]; DI water,5.0
same,solubility at 1 day,"[3]; aqueous buffer, thermodynamic from solid, 20 mM phosphate buffer, initial pH 3.2, room temperature",3.3 mg/mL
same,solubility at 1 week,"[3]; pH 3.2, aqueous buffer, thermodynamic from solid, 20 mM phosphate buffer, room temperature",4.1 mg/mL
same,solubility at 1 week,"[3]; pH 8.1, thermodynamic from solid, DI water, room temperature",4.3 mg/mL
same,solubility at 1 day,"[3]; thermodynamic from solid, DI water, initial pH 8.1, room temperature",3.1 mg/mL
same,stability of the hydrate over relative humidity (moisture sorption curve),[4]; 25° C.,stable from 5 to 90% RH
same,maximum moisture uptake,"[4]; at 90% RH, 25° C.",4.2 wt %
same,XRPD pattern after drying,[4],consistent with Form A
same,water content by KF after heating,"[5]; another sample, after heating",3.0%
same,water content by KF before heating,"[5]; another sample, before heating",3.1%
same,water content by KF,[5],3.7%
same,change in form upon humidity exposure,[6],did not show a change in form
same,Residual Amt of MeCN by OVI (ppm),"[7]; dried under vacuum at 40° C., time at temperature 16",1353 ppm
same,Residual Amt of MeCN by OVI (ppm),"[7]; dried under vacuum at 55° C., time at temperature 24 (total 40)",1303 ppm
same,Residual Amt of MeCN by OVI (ppm),"[7]; dried under vacuum at 70° C., time at temperature 24 (total 64)",1113 ppm
same,Residual Amt of MeCN by OVI (ppm),"[7]; dried under vacuum at 85° C., time at temperature 72 (total 136)",670 ppm
CCS(=O)(=O)c1cccc(-c2cc(C(=O)NC3CCN(C)CC3)c(C)c3[nH]c4ncc(C)cc4c23)c1 [Form L],hygroscopicity (moisture sorption curve),[4]; 25° C.,moderately hygroscopic
same,hysteresis upon desorption,[4]; 25° C.,not observed
same,maximum water uptake,"[4]; at 90% RH, 25° C.",3.9%
same,XRPD pattern after drying,[4],same pattern before and after drying
same,water content by KF,[5],2.9%
same,form after slurry in non-aqueous solvents,"[2]; solvents other than water, room temperature, one week",to the anhydrate Form C
same,form isolated after slurry in water,"[2]; room temperature, one week",convert to the monohydrate Form A
